Active and inactive are the calls of the source. The rule behind the calls is not given here.
Assays:
C3H 10T1/2 [1] = test: Induction of osteogenic differentiation in mouse C3H10T1/2 cells assessed as osteoblast by measuring increase in alkaline phosphatase at 20 uM relative to control; type: functional, cell-based
[2] = Induction of osteogenic differentiation in mouse C3H10T1/2 cells assessed as increase in alkaline phosphatase mRNA expression at 40 uM by RT-qPCR analysis relative to control; type: functional, C3H 10T1/2
C3H 10T1/2 [3] = test: Induction of osteogenic differentiation in mouse C3H10T1/2 cells upto 40 uM assessed as osteoblast by measuring alkaline phosphatase after 10 days of differentiation relative to control; type: functional, cell-based; details: dose microM <=40, time 10.0 day
[4] = Induction of osteogenic differentiation in mouse C3H10T1/2 cells assessed as increase in osteopontin mRNA expression at 40 uM by RT-qPCR analysis relative to control; type: functional, C3H 10T1/2
C3H 10T1/2 [5] = test: Induction of osteogenic differentiation in mouse C3H10T1/2 cells assessed as increase in osteopontin mRNA expression by RT-qPCR analysis relative to control; type: functional, cell-based
C3H 10T1/2 [6] = test: Induction of osteogenic differentiation in mouse C3H10T1/2 cells assessed as increase in alkaline phosphatase mRNA expression by RT-qPCR analysis relative to control; type: functional, cell-based
C3H 10T1/2 [7] = test: Induction of osteogenic differentiation in mouse C3H10T1/2 cells assessed as increase in osteopontin mRNA expression at 5 uM by RT-qPCR analysis relative to control; type: functional, cell-based
C3H 10T1/2 [8] = test: Induction of osteogenic differentiation in mouse C3H10T1/2 cells assessed as increase in alkaline phosphatase mRNA expression at 5 uM by RT-qPCR analysis relative to control; type: functional, cell-based

CO[C@@H](c1ccc(O)cc1)[C@H](O)C/C=C\c1ccc(O)cc1
Activity (C3H 10T1/2 [1]): inactive

Oc1ccc(/C=C\C/C=C\c2ccc(O)cc2)cc1
fold change (FC) [2]: 7.8 | Activity (C3H 10T1/2 [3]): Dose-dependent effect | Activity (C3H 10T1/2 [1]): Active | fold change (FC) [4]: 4.7 | Activity (C3H 10T1/2 [5]): Dose-dependent effect | Activity (C3H 10T1/2 [6]): Dose-dependent effect

COc1cc([C@H]2O[C@H](c3cc(OC)c(O)c(OC)c3)[C@@H](COC(=O)/C=C/c3ccc(O)cc3)[C@@H]2COC(=O)/C=C/c2ccc(O)cc2)cc(OC)c1O
Activity (C3H 10T1/2 [7]): Active | Activity (C3H 10T1/2 [8]): Active

Reference: ChEMBL document CHEMBL4673262, “Ginkgobilol, a new diarylpentanoid and an osteogenic diarylpentanoid analog from Ginkgo biloba leaves” (2020)
